Measured values: US11713309B2, “Solid forms of Cerdulatinib” (Alexion Pharmaceuticals, Inc., priority 2018, dated 2023)
Counter-ions that a name gives are not always drawn.

What was measured:
Type in all cases: physicochemical
[1] = Approximate kinetic solubility in pharmaceutical co-solvents; conditions: aqueous with cosolvent or surfactant or cyclodextrin, thermodynamic from solid, no-pH adjustment
Text: A summary of the approximate kinetic solubility of Compound I HCl Form I in organic solvents, simulated biological fluids, and common pharmaceutical co-solvents is provided in Tables 8-10, respectively.

[2] = Gravimetric vapor sorption (GVS) hygroscopicity; conditions: for GVS weight gain / total weight uptake: at/after about 70% RH, 25° C.
Description: Sorption isotherms were obtained using a Hiden Isochema moisture sorption analyser (model IGAsorp), controlled by IGAsorp Systems Software v6.50.48. The sample was maintained at a constant temperature (25° C.) by the instrument controls. The humidity was controlled by mixing streams of dry and wet nitrogen, with a total flow of 250 mL·min^−1. The instrument was verified for relative humidity content by measuring three calibrated Rotronic salt solutions (10-50-88%). The weight change of the sample was monitored as a function of humidity by a microbalance (accuracy+/−0.005 mg). A defined amount of sample was placed in a tared mesh stainless steel basket under ambient conditions. A full experimental cycle consisted of two scans (sorption and desorption) at a constant temperature (25° C.) and 10% RH intervals over a 10-90% range (90 minutes for each humidity level).
The hygroscopicity of the esylate, mesylate, HCl, and sulfate salts/co-crystals of Compound I formed via the first scale up process was analyzed. All hygroscopicity experiments covered a wide range of humidity (0 to about 90% relative humidity) and were performed at about 25° C. to assess behavior.

[3] = Polymorphic stability at elevated temperatures
Low humidity testing = test: Low humidity testing
Description: Low Humidity testing: Compound I HCl salt Form I was placed under N2 and checked by in situ XRPD at 20 min and 60 minutes. […] HCl salt Form I was placed under N2 bleeding for ˜60 min and TGA and DSC were measured. […] (peak temperature).

[4] = Kinetic solubility in FaSSIF; conditions: listed as HC1 salt Form I
Description: Kinetic solubility testing was conducted as follows: About 40-55 mg material was weighed into a 5-mL EP pipe. 4 mL of water/bio-relevant media (SGF, FaSSIF, or FeSSIF) was added into the corresponding sample pipe (drug loading: ˜10 mg/mL calculated as freebase). The pipes were capped tightly and the material was verified to be in contact with the media. The sample vials were placed on a roller and start rolling at 37° C. (rate: 25 r/min). Samples were taken at 1, 2, 4, 24 h. For each time point, 1.0 mL of suspension was transferred into a 2-mL centrifuge tube and the samples were centrifuged. The supernatant was filtered via 0.45 μm PTFE membrane and solubility and pH were measured. An XRPD test on residual solids was conducted.

[5] = Slurry maturations in various solvents (form reproducibility/stability); conditions: acetonitrile, EtOAc, ethanol, IPA; cycling about 25 to about 50° C., about 4 days
Description: A series of slurry maturations in various solvents was performed to further analyze the form reproducibility/stability of the esylate, mesylate, HCl, and sulfate salts/co-crystals of Compound I. The solvents chosen were acetonitrile, EtOAc, ethanol, and IPA. The input materials were the salts/co-crystals of Compound I formed via the second scale up process. About 20 mg of each sample was charged to reflux tubes and heated with temperature cycling between about 25 and about 50° C. for about 4 days. The resulting materials were isolated by filtration and dried in vacuo at about 40° C. The results of the slurry maturations for the resulting HCl and mesylate salts/co-crystals are presented in subsections (a)-(d) below. The data for the resulting esylate and sulfate salts/co-crystals of Compound have been omitted due to notable form variation.

[6] = 2% Captisol in aqueous solution
[7] = 5% Captisol in aqueous solution
[8] = 5% Pharmasolve in aqueous solution
[9] = 5% Poloxamer F68 in aqueous solution
[10] = 10% Captisol in aqueous solution
[11] = 10% HP-β-CD in aqueous solution
[12] = 10% Labrasol in aqueous solution
[13] = 10% Pharmasolve in aqueous solution
[14] = 10% Poloxamer F68 in aqueous solution
[15] = 20% HP-β-CD in aqueous solution
[16] = 20% Labrasol in aqueous solution
[17] = 30% HP-β-CD in aqueous solution
[18] = 35% Labrasol in aqueous solution
[19] = 40% Captisol in aqueous solution
[20] = 40% HP-β-CD in aqueous solution
[21] = 50% Labrasol in aqueous solution

## CCS(=O)(=O)N1CCN(c2ccc(Nc3ncc(C(N)=O)c(NC4CC4)n3)cc2)CC1 [Compound I HCl Form I, 4-(cyclopropylamino)-2-(4-(4-(ethylsulfonyl)piperazin-1-yl)phenylamino)pyrimidine-5-carboxamide]
[1]; [6]
  solubility kinetic at 2 h: 2040 µg/mL
  solubility kinetic at 24 h: 2510 µg/mL
  solubility kinetic at 7 days: 2540 µg/mL
[1]; 3% HP-β-CD in aqueous solution
  solubility kinetic at 2 h: 990 µg/mL
  solubility kinetic at 24 h: 1120 µg/mL
  solubility kinetic at 7 days: 1020 µg/mL
[1]; 3% TPGS in aqueous solution
  solubility kinetic at 2 h: 1060 µg/mL
  solubility kinetic at 24 h: 640 µg/mL
  solubility kinetic at 7 days: 540 µg/mL
[1]; [7]
  solubility kinetic at 2 h: 3010 µg/mL
  solubility kinetic at 24 h: 3610 µg/mL
  solubility kinetic at 7 days: 3750 µg/mL
[1]; 5% HP-β-CD in aqueous solution
  solubility kinetic at 2 h: 1450 µg/mL
  solubility kinetic at 24 h: 1390 µg/mL
  solubility kinetic at 7 days: 1590 µg/mL
[1]; [8]
  solubility kinetic at 2 h: 430 µg/mL
  solubility kinetic at 24 h: 690 µg/mL
[1]; [9]
  solubility kinetic at 2 h: 230 µg/mL
  solubility kinetic at 24 h: 180 µg/mL
[1]; 5% TPGS in aqueous solution
  solubility kinetic at 2 h: 1610 µg/mL
  solubility kinetic at 24 h: 1530 µg/mL
  solubility kinetic at 7 days: 1320 µg/mL
[1]; [10]
  solubility kinetic at 2 h: 3040 µg/mL
  solubility kinetic at 24 h: 3410 µg/mL
  solubility kinetic at 7 days: 3670 µg/mL
[1]; [11]
  solubility kinetic at 2 h: 1880 µg/mL
  solubility kinetic at 24 h: 2030 µg/mL
  solubility kinetic at 7 days: 1930 µg/mL
[1]; [12]
  solubility kinetic at 2 h: 1150 µg/mL
  solubility kinetic at 24 h: 820 µg/mL
  solubility kinetic at 7 days: 700 µg/mL
[1]; [13]
  solubility kinetic at 2 h: 700 µg/mL
  solubility kinetic at 24 h: 570 µg/mL
[1]; [14]
  solubility kinetic at 2 h: 260 µg/mL
  solubility kinetic at 24 h: 210 µg/mL
[1]; 10% TPGS in aqueous solution
  solubility kinetic at 2 h: 1800 µg/mL
  solubility kinetic at 24 h: 1930 µg/mL
  solubility kinetic at 7 days: 1720 µg/mL
[1]; [15]
  solubility kinetic at 2 h: 2630 µg/mL
  solubility kinetic at 24 h: 2810 µg/mL
  solubility kinetic at 7 days: 2650 µg/mL
[1]; [16]
  solubility kinetic at 2 h: 1840 µg/mL
  solubility kinetic at 24 h: 1850 µg/mL
  solubility kinetic at 7 days: 1710 µg/mL
[1]; 20% PEG in aqueous solution
  solubility kinetic at 2 h: 270 µg/mL
  solubility kinetic at 24 h: 370 µg/mL
[1]; 20% TPGS in aqueous solution
  solubility kinetic at 2 h: 2450 µg/mL
  solubility kinetic at 24 h: 2420 µg/mL
  solubility kinetic at 7 days: 2620 µg/mL
[1]; [17]
  solubility kinetic at 2 h: 2980 µg/mL
  solubility kinetic at 24 h: 2940 µg/mL
[1]; 30% PEG in aqueous solution
  solubility kinetic at 2 h: 420 µg/mL
  solubility kinetic at 24 h: 450 µg/mL
  solubility kinetic at 7 days: 410 µg/mL
[1]; [18]
  solubility kinetic at 2 h: 1900 µg/mL
  solubility kinetic at 24 h: 2010 µg/mL
  solubility kinetic at 7 days: 1800 µg/mL
[1]; [19]
  solubility kinetic at 2 h: 4250 µg/mL
  solubility kinetic at 24 h: 4400 µg/mL
  solubility kinetic at 7 days: 4330 µg/mL
[1]; [20]
  solubility kinetic at 2 h: 3860 µg/mL
  solubility kinetic at 24 h: 3840 µg/mL
  solubility kinetic at 7 days: 4120 µg/mL
[1]; [21]
  solubility kinetic at 2 h: 2050 µg/mL
  solubility kinetic at 24 h: 2650 µg/mL
  solubility kinetic at 7 days: 2200 µg/mL
[1]; 50% PEG in aqueous solution
  solubility kinetic at 2 h: 2170 µg/mL
  solubility kinetic at 24 h: 870 µg/mL
  solubility kinetic at 7 days: 690 µg/mL
[2]
  GVS weight gain / total weight uptake: about 5.9%
[2]; listed as Comp. I HCl (aq., 1:2) Form I
  GVS weight gain / total weight uptake: About 5.9%
[2]; exposure to humidity 0 to about 90% RH, about 25° C.
  Crystalline form by XRPD post GVS analysis: does not result in a form change
[2]; kept under about 100% dry atmosphere
  GVS mass lost: about 0.5%
[2]; up to about 70% RH
  GVS weight variation: does not vary significantly
[3]; 3 days at about 60% RH
  Polymorphism after re-hydrating post-TGA material (DSC): no gross effect upon the polymorphism, but amorphous content did appear
[3]; about 50° C., about 72 hours
  Crystalline form after dry-heating (XRPD, DSC, proton NMR): did not change the crystalline form
[3]; up to about 120° C. until approximately 3% weight loss
  Crystalline form after heating inside TGA: slight loss of crystallinity, but without a new form appearing
Low humidity testing; N2 bleeding for 20 min, 10.2% RH
  Form under N2 by in situ XRPD: A new form was observed
Low humidity testing; after N2 bleeding
  Form after re-exposure to ambient conditions: converted back to HCl salt Form I quickly
[4]; FaSSIF, 37° C., 1 h, drug loading ~10 mg/mL as freebase
  Solubility (mg/mL) 1 h: 0.012 mg/mL
[4]; FaSSIF, 37° C., 2 h
  Solubility (mg/mL) 2 h: 0.013 mg/mL
[4]; FaSSIF, 37° C., 4 h
  Solubility (mg/mL) 4 h: 0.013 mg/mL
[4]; FaSSIF, 37° C., 24 h
  Solubility (mg/mL) 24 h: 0.011 mg/mL
[4]; supernatant, FaSSIF (native pH 6.5), 1 h
  pH 1 h: 5.4
[4]; supernatant, FaSSIF (native pH 6.5), 2 h
  pH 2 h: 5.1
[4]; supernatant, FaSSIF (native pH 6.5), 4 h
  pH 4 h: 5.2
[4]; supernatant, FaSSIF (native pH 6.5), 24 h
  pH 24 h: 4.6
[5]
  Form after slurry maturation (XRPD): does not experience any form change
